# Experimental data as given in patent publication US20260226128A1, “Capped Peptides and Methods for Using the Same” (The Board of Trustees of the Leland Stanford Junior …, priority 2023, published 2026).
# Where a SMILES comes first, the peptide text is derived from it.
# Legend:
# GH3 cells = experiment: Growth hormone secretion from GH3 cells (ELISA of media); type: cell-based, rat; conditions: 10 μM
# Protocol: FIG. 13. Functional screen in GH3 cells identifies CAP-WNT9A as a growth hormone secretagogue in vitro. (A) Z-score of media growth hormone concentration with 1 hour treatment of 10 μM of 100% conserved capped peptides growth hormone secretagogue activity in GH3 cells (N=1 for all peptides and N=3 for DMSO). (B) Media growth hormone concentration with 1 hour treatment of 10 μM CAP-WNT9A or DMSO (N=3/group). (Error bars are SEM.)
# In a functional screen in GH3 cells, a rat pituitary cell line, various capped peptides are shown to activate growth hormone secretion (FIG. 13A).
# In vitro studies. GH3 cells (rat pituitary cell line, ATCC cat. #CCL-82.1) were cultured in F-12K medium with 2.5% fetal bovine serum and 15% horse serum. GH3 cells were washed, resuspended in Krebs Ringer Hepes Buffer, diluted to 0.5 million cells/mL, and aliquoted into tubes (300 μL/sample). The GH3 cells were then starved for 60 minutes in Krebs Ringer Hepes Buffer. The capped peptides (N=1 in screen and N=3 in repeat with CAP-WNT9A) or DMSO (N=3) control were added at a 10 μM final concentration. GH3 cells were incubated for 1 hour. Cells were pelleted with 5 min centrifuge spin at 500×g at 4 C. Grown hormone was measured in the supernatant with an ELISA kit (Thermo Cat #KRC5311) according to product protocol. Z-score of growth hormone concentration is shown. […]
# diet-induced obese mice [1] = experiment: Three-day daily dosing in diet-induced obese mice, food intake and body weight; type: in vivo, mouse; conditions: 50 mg/kg/day, IP, 3 days, versus vehicle control
# Protocol: (§1) FIG. 5. Functional studies of CAP-GDF15 in feeding and energy balance in mice. […] (B) Representative extracted ion chromatogram and (C) mirror tandem fragmentation spectra of CAP-GDF15 (pGlu-[…]-NH2; +2 ion m/z=682.4) and the endogenous plasma peak. (D) Food intake, (E) respiratory exchange ratio (RER), and (F) ambulatory activity of 12-16-week diet-induced obese male mice following a single treatment of CAP-GDF15 (50 mg/kg, intraperitoneal) or vehicle control. (G) Food intake, (H) RER, and (I) ambulatory activity of 12-16-week diet-induced obese male mice following a single treatment of scrambled CAP-GDF15 (50 mg/kg, intraperitoneal, scrambled sequence: pGlu-[…]-NH2) or vehicle control. (J) 3-day food intake and (K) body weight of 12-16-week diet-induced obese male mice following treatment with CAP-GDF15 or scrambled CAP-GDF15 (50 mg/kg/day, IP), or vehicle control. Data are shown as means #SEM. For (D-F), N=12/group; for (G-I), N=8/group; for (J,K), N=7/group. For (D-1), injection occurred at time T=0 (5:00 μm) and data was collected for the following 16 hrs. For (D-K), ** P<0.01, *** P<0.001 by two-way ANOVA.
# Lastly, to determine whether the acute hypophagic effects of CAP-GDF15 would lead to long-term suppression of feeding and obesity, we administered CAP-GDF15 or scrambled CAP-GDF15 (50 mg/kg/day, IP), or vehicle control to diet-induced obese mice. Food intake and body weight were monitored over a three-day period. […] Importantly, mice treated with the scrambled CAP-GDF15 peptide were indistinguishable in body weight or food intake from control mice (FIGS. 5J-5K).
# Mice and treatments. Animal experiments were performed according to a procedure approved by the Stanford University Administrative Panel on Laboratory Animal Care. Mice were maintained in 12-h light-dark cycles at 22° C. and about 50% relative humidity and fed a standard irradiated rodent diet. Where indicated, a high-fat diet (D12492, Research Diets 60% kcal from fat) was used. Male C57BL/6J (stock number 000664) and male C57BL/6J DIO mice were purchased from the Jackson Laboratory (stock number 380050). For studies in high fat diet-fed mice, peptides were dissolved in 18:1:1 (by volume) of saline: Kolliphor EL (Sigma Aldrich): DMSO and administered to mice by intraperitoneal injections at a volume of 10 μl/g at the indicated doses for the indicated times. For lipopolysaccharide injection, LPS was dissolved in saline and administered to mice at a volume of 5 μl/g at indicated dose. For fasting, food was removed from mice for 16 h. For running, a six-lane Columbus Instruments animal treadmill (product 1055-SRM-D65) was used with following 1 h protocol: 10 min at 6 m/min, 50 min at 18 m/min, and increase every 2 min by 2 m/min for the last 10 minutes, all at 12° incline. […]
# diet-induced obese mice [2] = experiment: Single dose in diet-induced obese mice, metabolic chambers (CAP-GDF15 experiments); type: in vivo, mouse; conditions: single dose 50 mg/kg intraperitoneally
# Protocol: as §1
# FIG. 6. Additional measurements from metabolic chambers of mice treated with CAP-GDF15. (A) VO2 and (B) VCO2 of 12-16-week diet-induced obese male mice following a single treatment of CAP-GDF15 (50 mg/kg, intraperitoneal) or vehicle control. (C) VO2 and (D) VCO2 of 12-16-week diet-induced obese male mice following a single treatment of scrambled CAP-GDF15 (50 mg/kg, intraperitoneal, scrambled sequence: p[…]-NH2) or vehicle control. Data are shown as means±SEM. For (A-B), N=12/group; for (C-D), N=8/group. For (A-D), injection occurred at time T=0 (5:00 μm) and data was collected for the subsequent 16 hrs.
# To test this possibility, we administered a single dose of CAP-GDF15 (50 mg/kg, intraperitoneally) to diet-induced obese mice and measured whole body parameters of energy balance in metabolic chambers.
# We next synthesized a control CAP-GDF15 peptide that preserved amino acid composition but scrambled the intervening amino acid sequence (scrambled CAP-GDF15, pGlu-[…]-NH2). […] We conclude that the hypophagic effects of CAP-GDF15 are specific to this amino acid sequence.
# Mice and treatments. Animal experiments were performed according to a procedure approved by the Stanford University Administrative Panel on Laboratory Animal Care. Mice were maintained in 12-h light-dark cycles at 22° C. and about 50% relative humidity and fed a standard irradiated rodent diet. Where indicated, a high-fat diet (D12492, Research Diets 60% kcal from fat) was used. Male C57BL/6J (stock number 000664) and male C57BL/6J DIO mice were purchased from the Jackson Laboratory (stock number 380050). For studies in high fat diet-fed mice, peptides were dissolved in 18:1:1 (by volume) of saline: Kolliphor EL (Sigma Aldrich): DMSO and administered to mice by intraperitoneal injections at a volume of 10 μl/g at the indicated doses for the indicated times. For lipopolysaccharide injection, LPS was dissolved in saline and administered to mice at a volume of 5 μl/g at indicated dose. For fasting, food was removed from mice for 16 h. For running, a six-lane Columbus Instruments animal treadmill (product 1055-SRM-D65) was used with following 1 h protocol: 10 min at 6 m/min, 50 min at 18 m/min, and increase every 2 min by 2 m/min for the last 10 minutes, all at 12° incline. For all treatment experiments, mice were mock injected with the vehicle for 3-5 days until body weights were stabilized. Heparin plasm was harvested by submandibular bleed. For all experiments, mice were randomly assigned to treatment groups. Experimenters were not blinded to groups.
# Metabolic chamber studies. For acute energy expenditure studies, food intake, RER, movement, VO2, and VCO2 were collected with CLAMS Oxymax Metabolic Cages. Mice were placed individual metabolic cages for 24 hours prior to experiment. […]
# human TACR1 = biological target: T1, human TACR1 (Homo sapiens, UniProt P25103); experiment: human TACR1-beta arrestin recruitment assay (PathHunter beta-arrestin CHO-K1 cells); type: cell-based; conditions: human TACR1-transfected PathHunter beta-arrestin CHO-K1 cells
# T1 construct: host or cells: PathHunter beta-arrestin CHO-K1 cells
# Text: (§2) FIG. 4. […] (A) Schematic and annotation of the primary amino acid sequence for full-length mouse TAC1 preproprotein and its cleavage products. […] For (B), N=2 per concentration; for (C), N=3 per condition. For (B,C), data are shown as means±SEM. * P<0.05, ** P<0.01 versus control by Student's t-test.
# diet induced obese mice [3] = experiment: Oxygen consumption after single CAP-TAC1 injection, metabolic chambers; type: in vivo, mouse; conditions: single injection at T=0, 10 mg/kg (FIG. 11 legend), over 24 hours
# Protocol: FIG. 11. CAP-TAC1 acutely induces oxygen consumption over 24 hours. Oxygen consumption (VO2) of diet induced obese mice injected with a single injection at T=0 vehicle (18:1:1 Saline: DMSO: Kolliphor EL) or 10 mg/kg CAP-TAC1 (pGlu-FFGLM-NH2). (N=4 for vehicle and CAP-TAC1 groups, error bars are SEM, and P values calculated with two-way ANOVA.)
# Metabolic chamber studies. For acute energy expenditure studies, food intake, RER, movement, VO2, and VCO2 were collected with CLAMS Oxymax Metabolic Cages. Mice were placed individual metabolic cages for 24 hours prior to experiment. For CAP-GDF15 experiments, mice were injected with either vehicle, 50 mg/kg CAP-GDF15, or 50 mg/kg scrambled CAP-GDF15 at 5 μm at T=0. For CAP-TAC1 experiments, mice were injected with either vehicle (18:1:1 Saline: DMSO: Kolliphor EL) or […] CAP-TAC1 (pGlu-FFGLM-NH2) at ~12 μm (T=0). Food intake, RER, movement, VO2, and VCO2 were collected every 7 minutes for […] immediately after injection. All experiments were done with 3-5 month old DIO mice (Jackson, stock 380050), fed high fat diet ad libitum.
# [4] = Half-life of peptides incubated in mouse plasma, levels by LC-MS
# Protocol: as §2
# Half-life calculations of CAP-TAC1 in plasma. 10 µM of either synthetic CAP-TAC1 or SP was incubated with 100 μl of mouse plasma. Samples were incubated at 37° C. for 0, 10, 30, 60, or 90 minutes (N=3 for each time point). At the indicated time point, 1 μl of HALT protease inhibitor was immediately added, and plasma was boiled and prepared using the peptidomics workflow described above. […] Half-lives were calculated using an exponential decay fit.
# diet induced obese mice [5] = experiment: Daily CAP-TAC1 treatment of diet induced obese mice with pair fed group; type: in vivo, mouse; conditions: 10 mg/kg daily
# Protocol: FIG. 10. […] (A) Body weight change and (B) food intake of diet induced obese mice injected with vehicle (18:1:1 Saline: DMSO: Kolliphor EL), 10 mg/kg CAP-TAC1 (pGlu-FFGLM-NH2), and vehicle pair fed to CAP-TAC1 group. (N=6 for vehicle, N=7 for CAP-TAC1 and pair fed groups, error bars are SEM, and P values calculated with two-way ANOVA.)
# CAP-TAC1 treatments in mice. Injected diet induced obese (on high fat diet, 4 months old, male, C57BL/6J, Jackson cat #380050) mice daily with vehicle (18:1:1 Saline: DMSO: Kolliphor EL) or 10 mg/kg CAP-TAC1 (pGlu-FFGLM-NH2). The pair fed group was started one day later and fed the same food the CAP-TAC1 mice ate daily. Mice were singly housed and injected daily ~12 μm. Mouse body weights and food weights were measured at the same time. (N=6 for vehicle, N=7 for CAP-TAC1 and pair fed groups.)
# T1 sequence (P25103 whole entry): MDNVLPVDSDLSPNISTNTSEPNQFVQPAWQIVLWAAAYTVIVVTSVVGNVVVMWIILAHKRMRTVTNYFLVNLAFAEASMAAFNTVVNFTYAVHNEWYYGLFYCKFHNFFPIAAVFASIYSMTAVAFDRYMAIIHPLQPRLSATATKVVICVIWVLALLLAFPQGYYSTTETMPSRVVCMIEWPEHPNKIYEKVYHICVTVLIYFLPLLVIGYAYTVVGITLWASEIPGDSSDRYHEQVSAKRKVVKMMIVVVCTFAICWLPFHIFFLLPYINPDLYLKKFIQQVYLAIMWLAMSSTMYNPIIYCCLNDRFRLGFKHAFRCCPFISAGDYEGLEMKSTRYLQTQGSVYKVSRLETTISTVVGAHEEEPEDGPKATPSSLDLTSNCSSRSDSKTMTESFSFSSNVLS
molecule,measurement,setting,value
"pGlu-WGGCGDNLKYSSKFVEFL-NH2 (HELM PEPTIDE1{[Glp].W.G.G.C.G.D.N.L.K.Y.S.S.K.F.V.E.F.L.[am]}$$$$V2.0; SMILES CC(C)C[C@H](NC(=O)[C@H](Cc1ccccc1)NC(=O)[C@H](CCC(=O)O)NC(=O)[C@@H](NC(=O)[C@H](Cc1ccccc1)NC(=O)[C@H](CCCCN)NC(=O)[C@H](CO)NC(=O)[C@H](CO)NC(=O)[C@H](Cc1ccc(O)cc1)NC(=O)[C@H](CCCCN)NC(=O)[C@H](CC(C)C)NC(=O)[C@H](CC(N)=O)NC(=O)[C@H](CC(=O)O)NC(=O)CNC(=O)[C@H](CS)NC(=O)CNC(=O)CNC(=O)[C@H](Cc1c[nH]c2ccccc12)NC(=O)[C@@H]1CCC(=O)N1)C(C)C)C(N)=O) [CAP-WNT9A, top hit of growth hormone secretagogue screen]",growth hormone secretagogue activity in screen (Z-score of media growth hormone concentration),"GH3 cells; 1 hour treatment, N=1",highest growth hormone secretagogue activity
same,growth hormone concentration in media versus DMSO,"GH3 cells; one hour treatment, N=3",increased by four times
"pGlu-LELRLRVAAGR-NH2 (HELM PEPTIDE1{[Glp].L.E.L.R.L.R.V.A.A.G.R.[am]}$$$$V2.0; SMILES CC(C)C[C@H](NC(=O)[C@@H]1CCC(=O)N1)C(=O)N[C@@H](CCC(=O)O)C(=O)N[C@@H](CC(C)C)C(=O)N[C@@H](CCCNC(=N)N)C(=O)N[C@@H](CC(C)C)C(=O)N[C@@H](CCCNC(=N)N)C(=O)N[C@H](C(=O)N[C@@H](C)C(=O)N[C@@H](C)C(=O)NCC(=O)N[C@@H](CCCNC(=N)N)C(N)=O)C(C)C) [CAP-GDF15, 12-mer capped peptide from amino acids 174-185 of mouse GDF15 prepropeptide region]",body weight over three-day period,diet-induced obese mice [1],increasing reduction in body weight
same,food intake over three-day period,diet-induced obese mice [1],durable suppression of food intake
same,carbon dioxide production (VCO2),diet-induced obese mice [2],did not alter
same,movement (ambulatory activity),diet-induced obese mice [2],did not alter
same,oxygen consumption (VO2),diet-induced obese mice [2],did not alter
same,respiratory exchange ratio (RER),diet-induced obese mice [2]; 16 hrs after injection,suppression of respiratory exchange ratio (RER) was also observed
same,suppression of food intake compared to vehicle-treated mice,diet-induced obese mice [2]; 16 hrs after injection,~ 60%
"CSCC[C@H](NC(=O)[C@H](CC(C)C)NC(=O)CNC(=O)[C@H](Cc1ccccc1)NC(=O)[C@H](Cc1ccccc1)NC(=O)[C@@H]1CCC(=O)N1)C(N)=O [CAP-TAC1, pGlu-FFGLM-NH2] (HELM PEPTIDE1{[Glp].F.F.G.L.M.[am]}$$$$V2.0)",EC50,"human TACR1; read-out: ED50, agonism of TACR1",700 pM
same,Emax,"human TACR1; read-out: maximal activation, % of maximal response",96.6%
same,oxygen consumption (VO2),diet induced obese mice [3],induces an increase in oxygen consumption
same,peptide level in mouse plasma after 90 min,[4],still detectable
same,half-life at 10 µM,"[4]; mouse, plasma",14.4 min
same,food intake,diet induced obese mice [5]; versus vehicle,independent of any changes of food intake
same,body weight change,diet induced obese mice [5]; versus vehicle and pair fed group,induces body weight loss
"pGlu-GLEALRARLRV-NH2 (HELM PEPTIDE1{[Glp].G.L.E.A.L.R.A.R.L.R.V.[am]}$$$$V2.0; SMILES CC(C)C[C@H](NC(=O)CNC(=O)[C@@H]1CCC(=O)N1)C(=O)N[C@@H](CCC(=O)O)C(=O)N[C@@H](C)C(=O)N[C@@H](CC(C)C)C(=O)N[C@@H](CCCNC(=N)N)C(=O)N[C@@H](C)C(=O)N[C@@H](CCCNC(=N)N)C(=O)N[C@@H](CC(C)C)C(=O)N[C@@H](CCCNC(=N)N)C(=O)N[C@H](C(N)=O)C(C)C) [scrambled CAP-GDF15, reference compound]",body weight over three-day period,diet-induced obese mice [1],indistinguishable
same,food intake over three-day period,diet-induced obese mice [1],indistinguishable
same,respiratory exchange ratio (RER),diet-induced obese mice [2]; 16 hrs after injection,completely ineffective
same,"food intake, effect in words",diet-induced obese mice [2]; identical experimental conditions,completely ineffective
